One block for each molecule: values may come before it.
What was measured:
PI3K p110α [1] = molecular target: PI3K p110α (Mus musculus, UniProt P42337); assay: Cellular p110α signaling: PDGF-stimulated MEFs, pAkt Western blot; format: cell-based, murine; conditions: cellular assay, MEFs, PDGF; read-out: EC50 p110α
Method: (§2) To analyze PI3K p110α and p110β signaling, murine embryo fibroblast (MEFs) were removed from FBS and starved for 2 hours followed by stimulation with 10 ng/mL of PDGF (Cell Signaling Technologies, Danvers, Mass.) or 10 μM of LPA (Echelon, Salt Lake City, Utah) for 10 minutes at 37° C., respectively. After washing once in cold phosphate-buffered saline (PBS), the cell pellet was resuspended in 1× cell lysis buffer (Cell Signaling Technologies) supplemented with mini protease inhibitor mix (Roche, Indianapolis, Ind.), phosphate inhibitor cocktail set I and II (Calbiochem, San Diego, Calif.) for 15 minutes on ice. Whole-cell lysates were obtained by centrifugation at 16,000 g for 10 minutes at 4° C., and the soluble protein was analyzed by Western blotting for Akt and pAkt levels. To analyze PI3K p110δ and p110γ signaling, basophil activation was measured in isolated PBMC or whole blood using the Flow2 CAST kit according to the manufacture's standardized methods (Buhlman Laboratories AG, Switzerland). Briefly, p110δ was activated with anti-FCεRI and p110γ was activated with fMLP (2 μM) in the absence or presence of compounds. To monitor the basophil cell population and cellular activation, anti-CD63-FITC and anti-CCR3-PE antibodies were added to each sample. Cells were fixed and analyzed on a FC500 MPL flow cytometer (Beckman Coulter, Brea, Calif.).

PI3K p110β [2] = molecular target: T1, PI3K p110β (Mus musculus, UniProt Q8BTI9); assay: Cellular p110β signaling: LPA-stimulated MEFs, pAkt Western blot; format: cell-based, murine; conditions: cellular assay, read-out: EC50 p110β
T1 construct: endogenous in cells; host or cells: murine embryo fibroblasts (MEFs)
T1 sequence (Q8BTI9 whole entry): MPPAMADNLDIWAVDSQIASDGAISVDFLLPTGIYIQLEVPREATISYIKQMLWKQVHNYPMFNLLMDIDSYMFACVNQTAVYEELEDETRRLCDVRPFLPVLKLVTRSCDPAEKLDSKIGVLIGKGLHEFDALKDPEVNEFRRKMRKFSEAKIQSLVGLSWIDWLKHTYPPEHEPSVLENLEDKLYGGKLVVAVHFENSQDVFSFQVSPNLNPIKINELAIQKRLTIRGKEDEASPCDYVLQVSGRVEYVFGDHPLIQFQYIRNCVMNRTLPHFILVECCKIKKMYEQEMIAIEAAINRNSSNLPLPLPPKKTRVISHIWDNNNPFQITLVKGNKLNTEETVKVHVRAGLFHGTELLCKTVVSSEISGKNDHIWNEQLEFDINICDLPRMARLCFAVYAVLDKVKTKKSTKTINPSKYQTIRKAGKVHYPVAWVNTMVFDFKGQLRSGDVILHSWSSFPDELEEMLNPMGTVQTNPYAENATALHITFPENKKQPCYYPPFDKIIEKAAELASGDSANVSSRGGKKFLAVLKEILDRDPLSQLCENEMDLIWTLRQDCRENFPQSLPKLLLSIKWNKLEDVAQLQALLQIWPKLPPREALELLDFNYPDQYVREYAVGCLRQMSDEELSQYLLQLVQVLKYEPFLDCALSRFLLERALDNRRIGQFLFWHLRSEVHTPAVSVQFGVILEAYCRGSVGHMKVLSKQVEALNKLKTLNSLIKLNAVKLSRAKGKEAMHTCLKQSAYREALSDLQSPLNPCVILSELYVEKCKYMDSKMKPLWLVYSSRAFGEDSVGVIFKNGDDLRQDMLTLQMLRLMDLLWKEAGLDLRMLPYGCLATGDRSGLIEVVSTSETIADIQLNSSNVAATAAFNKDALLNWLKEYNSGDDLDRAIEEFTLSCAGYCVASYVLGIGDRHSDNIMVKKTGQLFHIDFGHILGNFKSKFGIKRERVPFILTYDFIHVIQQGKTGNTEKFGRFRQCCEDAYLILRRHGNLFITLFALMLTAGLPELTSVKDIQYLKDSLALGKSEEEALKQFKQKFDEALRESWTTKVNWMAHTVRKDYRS
T1 sequence (P26450 whole entry partner): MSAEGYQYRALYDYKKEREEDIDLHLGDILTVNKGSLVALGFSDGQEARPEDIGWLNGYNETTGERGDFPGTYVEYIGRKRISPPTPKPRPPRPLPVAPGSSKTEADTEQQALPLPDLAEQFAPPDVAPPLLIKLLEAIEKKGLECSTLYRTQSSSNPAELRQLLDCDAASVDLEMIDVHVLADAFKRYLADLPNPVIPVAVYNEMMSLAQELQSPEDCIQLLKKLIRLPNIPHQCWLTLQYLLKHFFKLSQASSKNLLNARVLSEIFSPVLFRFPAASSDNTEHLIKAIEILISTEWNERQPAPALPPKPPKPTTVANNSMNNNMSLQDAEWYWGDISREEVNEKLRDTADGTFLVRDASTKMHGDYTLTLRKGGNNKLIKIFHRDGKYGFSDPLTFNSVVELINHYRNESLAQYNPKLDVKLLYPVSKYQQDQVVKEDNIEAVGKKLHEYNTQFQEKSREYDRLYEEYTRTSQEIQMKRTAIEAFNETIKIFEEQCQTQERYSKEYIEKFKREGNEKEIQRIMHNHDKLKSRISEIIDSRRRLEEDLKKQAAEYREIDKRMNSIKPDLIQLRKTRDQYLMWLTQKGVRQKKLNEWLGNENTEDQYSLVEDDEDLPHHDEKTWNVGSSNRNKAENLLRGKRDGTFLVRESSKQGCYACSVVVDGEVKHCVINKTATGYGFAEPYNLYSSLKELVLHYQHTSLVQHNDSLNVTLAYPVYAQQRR
Method: as §2

Solid tumor = assay: Cellular viability, solid tumor; format: cell-based; conditions: N = 14
Method: For primary T-ALL samples, cell viability was determined using the BD Cell Viability kit (BD Biosciences) and fluorescent counting beads as previously described in Armstrong, F. et al., NOTCH is a key regulator of human T-cell acute leukemia initiating cell activity, Blood 113, 1730-1740 (2009). Cells were plated with MS5-DL1 stroma cells. After 72 hours following treatment, cells were harvested and stained with an APC-conjugated anti-human CD45 according to the manufacturer's instructions. For solid tumor cell lines, cellular viability was determined using the AlamarBlue kit (Invitrogen). About 10,000 cells in 100 μL of media containing 10% FBS were aliquoted into individual wells of a 96-well plate and treated with vehicle (DMSO) or compound in triplicate for 24 hours. Ten μL of AlamarBlue reagent was added to each well and incubated for 4 hours at 37° C. with 5% CO2. Fluorescence was measured with an excitation wavelength at 530 to 560 nm and emission wavelength at 590 nm using Spectramax M5 plate reader (Molecular Devices, Sunnyvale, Calif.).
(§1) Cellular viability and pAkt activity were used to determine effects of Compounds A, C, and D in solid tumor, B-cell malignancies, and T-cell malignancies.

B Cell Malignancies = assay: Cellular viability, B cell malignancies; format: cell-based; conditions: N = 7
Description: as §1

[3] = test system: pAkt in B Cell Malignancies; assay: pAkt activity, B cell malignancies; format: cell-based; conditions: N = 7
Description: as §1

T Cell Malignancies = assay: Cellular viability, T cell malignancies; format: cell-based; conditions: N = 7
Description: as §1

PI3K p110β [4] = molecular target: T2, PI3K p110β (Homo sapiens, UniProt P42338); assay: SelectScreen in vitro kinase inhibitor assay, p110β; format: biochemical
T2 construct: purchased Invitrogen Ltd. (SelectScreen service)

PI3K p110γ [5] = molecular target: T3, PI3K p110γ (Homo sapiens, UniProt P48736); assay: SelectScreen in vitro kinase inhibitor assay, p110γ; format: biochemical; conditions: ATP at Km
PI3K p110δ [6] = molecular target: T4, PI3K p110δ (Homo sapiens, UniProt O00329); assay: SelectScreen in vitro kinase inhibitor assay, p110δ; format: biochemical
T4 construct: endogenous in cells; host or cells: basophils in isolated PBMC or whole blood
T4 sequence (O00329 whole entry): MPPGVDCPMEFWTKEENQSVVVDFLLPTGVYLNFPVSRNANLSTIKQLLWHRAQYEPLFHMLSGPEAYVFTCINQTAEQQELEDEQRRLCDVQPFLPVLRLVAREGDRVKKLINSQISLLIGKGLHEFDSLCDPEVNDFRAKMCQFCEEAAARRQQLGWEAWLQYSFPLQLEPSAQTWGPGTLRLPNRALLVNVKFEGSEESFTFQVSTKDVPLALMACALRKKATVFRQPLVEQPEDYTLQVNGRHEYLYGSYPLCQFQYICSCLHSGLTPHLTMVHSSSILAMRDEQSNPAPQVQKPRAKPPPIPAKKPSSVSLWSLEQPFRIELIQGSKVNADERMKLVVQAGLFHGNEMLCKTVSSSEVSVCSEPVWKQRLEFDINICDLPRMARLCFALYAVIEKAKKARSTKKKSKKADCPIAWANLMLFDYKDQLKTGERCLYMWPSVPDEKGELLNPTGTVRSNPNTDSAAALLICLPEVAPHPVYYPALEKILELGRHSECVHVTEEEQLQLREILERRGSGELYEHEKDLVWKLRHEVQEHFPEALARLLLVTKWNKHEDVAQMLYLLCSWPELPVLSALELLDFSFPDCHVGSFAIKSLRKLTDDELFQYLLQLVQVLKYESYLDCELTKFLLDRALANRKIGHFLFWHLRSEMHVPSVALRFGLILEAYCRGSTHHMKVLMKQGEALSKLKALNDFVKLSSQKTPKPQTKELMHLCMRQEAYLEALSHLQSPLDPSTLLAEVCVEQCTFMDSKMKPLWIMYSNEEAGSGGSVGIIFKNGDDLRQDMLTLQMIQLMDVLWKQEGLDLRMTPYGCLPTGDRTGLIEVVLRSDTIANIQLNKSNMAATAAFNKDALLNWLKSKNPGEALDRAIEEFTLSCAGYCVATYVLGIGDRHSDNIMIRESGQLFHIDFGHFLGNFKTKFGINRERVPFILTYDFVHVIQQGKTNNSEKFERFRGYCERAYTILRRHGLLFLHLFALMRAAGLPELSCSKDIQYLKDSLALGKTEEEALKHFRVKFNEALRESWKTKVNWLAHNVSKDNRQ
T4 sequence (P27986 whole entry partner): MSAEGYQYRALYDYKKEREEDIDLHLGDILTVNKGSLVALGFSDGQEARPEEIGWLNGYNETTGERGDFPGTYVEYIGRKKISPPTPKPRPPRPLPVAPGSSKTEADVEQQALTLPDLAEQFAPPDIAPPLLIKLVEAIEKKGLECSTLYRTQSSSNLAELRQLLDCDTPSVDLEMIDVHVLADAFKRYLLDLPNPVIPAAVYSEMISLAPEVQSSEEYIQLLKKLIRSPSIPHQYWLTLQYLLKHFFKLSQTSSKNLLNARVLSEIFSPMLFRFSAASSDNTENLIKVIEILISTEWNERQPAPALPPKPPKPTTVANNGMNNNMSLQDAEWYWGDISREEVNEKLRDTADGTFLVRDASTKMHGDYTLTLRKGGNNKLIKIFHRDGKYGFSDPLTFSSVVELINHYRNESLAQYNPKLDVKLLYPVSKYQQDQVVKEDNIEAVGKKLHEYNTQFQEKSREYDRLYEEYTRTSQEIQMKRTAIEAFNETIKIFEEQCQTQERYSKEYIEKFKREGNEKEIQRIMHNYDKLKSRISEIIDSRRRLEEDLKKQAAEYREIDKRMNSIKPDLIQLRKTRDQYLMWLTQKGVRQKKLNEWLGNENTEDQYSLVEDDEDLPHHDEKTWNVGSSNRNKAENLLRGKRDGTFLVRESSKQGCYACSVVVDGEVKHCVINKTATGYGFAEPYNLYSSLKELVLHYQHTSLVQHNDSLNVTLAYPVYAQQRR

PI3K p110δ [7] = molecular target: T4, PI3K p110δ; assay: Cellular p110δ signaling: basophil activation with anti-FCεRI (Flow2 CAST); format: cell-based; conditions: cellular assay
Method: as §2

PI3Kβ (p110 β) = molecular target: T5, PI3Kβ (p110 β) (Homo sapiens, UniProt P42338); assay: TR-FRET enzymatic assay, PI3Kβ; format: biochemical
T5 construct: made in house
Method: (§3) Enzymatic activity of the class I PI3K isoforms was measured using a time resolved fluorescence resonance energy transfer assay (TR-FRET) that monitors formation of the product 3,4,5-inositol triphosphate molecule (PIP3), as it competes with fluorescently labeled PIP3 for binding to the GRP-1 pleckstrin homology domain protein. An increase in phosphatidylinositide 3-phosphate product results in a decrease in TR-FRET signal as the labeled fluorophore is displaced from the GRP-1 protein binding site. Class I PI3K isoforms were expressed and purified as heterodimeric recombinant proteins. All assay reagents and buffers for the TR-FRET assay were purchased from Millipore. […] After an assay reaction time of 30 minutes at 25° C., reactions were terminated with a final concentration of 10 mM EDTA, 10 nM labeled-PIP3, and 35 nM Europium labeled GRP-1 detector protein before reading TR-FRET on an Envision plate reader. IC50 values were calculated from the fit of the dose-response curves to a four-parameter equation. All IC50 values represent geometric mean values of a minimum of four determinations. These assays generally produced results within 3-fold of the reported mean.

PI3Kδ (p110δ) = molecular target: T6, PI3Kδ (p110δ) (Homo sapiens, UniProt O00329); assay: TR-FRET enzymatic assay, PI3Kδ; format: biochemical
T6 construct: made in house
T6 sequence (O00329 whole entry): as the sequence (O00329 whole entry) above
T6 sequence (P27986 whole entry partner): as the sequence (P27986 whole entry partner) above
Method: as §3

PI3Kγ (p110γ) = molecular target: T7, PI3Kγ (p110γ) (Homo sapiens, UniProt P48736); assay: TR-FRET enzymatic assay, PI3Kγ; format: biochemical; conditions: 2×Km ATP, geometric mean of at least four determinations
T7 construct: made in house
Method: as §3

pAkt in solid tumor = assay: pAkt activity, solid tumor; format: cell-based; conditions: N = 14
Description: as §1

[8] = test system: pAkt in T Cell Malignancies; assay: pAkt activity, T cell malignancies; format: cell-based; conditions: N = 7
Description: as §1

PI3K p110α [9] = molecular target: PI3K p110α (Homo sapiens, UniProt P42336); assay: biochemical
PI3Kα (p110α) = PI3Kα (p110α) (Homo sapiens, UniProt P42336); assay: biochemical
Method: Enzymatic activity of the class I PI3K isoforms was measured using a time resolved fluorescence resonance energy transfer assay (TR-FRET) that monitors formation of the product 3,4,5-inositol triphosphate molecule (PIP3), as it competes with fluorescently labeled PIP3 for binding to the GRP-1 pleckstrin homology domain protein. An increase in phosphatidylinositide 3-phosphate product results in a decrease in TR-FRET signal as the labeled fluorophore is displaced from the GRP-1 protein binding site. Class I PI3K isoforms were expressed and purified as heterodimeric recombinant proteins. All assay reagents and buffers for the TR-FRET assay were purchased from Millipore. […] IC50 values were calculated from the fit of the dose-response curves to a four-parameter equation. All IC50 values represent geometric mean values of a minimum of four determinations. These assays generally produced results within 3-fold of the reported mean.

PI3K p110γ [10] = molecular target: T3, PI3K p110γ; assay: Cellular p110γ signaling: basophil activation with fMLP (Flow2 CAST); format: cell-based; parameters: endogenous in cells; host or cells: basophils in isolated PBMC or whole blood; conditions: cellular assay
Method: as §2

Sequence of PI3K p110α (Mus musculus, UniProt P42337) (P42337 whole entry): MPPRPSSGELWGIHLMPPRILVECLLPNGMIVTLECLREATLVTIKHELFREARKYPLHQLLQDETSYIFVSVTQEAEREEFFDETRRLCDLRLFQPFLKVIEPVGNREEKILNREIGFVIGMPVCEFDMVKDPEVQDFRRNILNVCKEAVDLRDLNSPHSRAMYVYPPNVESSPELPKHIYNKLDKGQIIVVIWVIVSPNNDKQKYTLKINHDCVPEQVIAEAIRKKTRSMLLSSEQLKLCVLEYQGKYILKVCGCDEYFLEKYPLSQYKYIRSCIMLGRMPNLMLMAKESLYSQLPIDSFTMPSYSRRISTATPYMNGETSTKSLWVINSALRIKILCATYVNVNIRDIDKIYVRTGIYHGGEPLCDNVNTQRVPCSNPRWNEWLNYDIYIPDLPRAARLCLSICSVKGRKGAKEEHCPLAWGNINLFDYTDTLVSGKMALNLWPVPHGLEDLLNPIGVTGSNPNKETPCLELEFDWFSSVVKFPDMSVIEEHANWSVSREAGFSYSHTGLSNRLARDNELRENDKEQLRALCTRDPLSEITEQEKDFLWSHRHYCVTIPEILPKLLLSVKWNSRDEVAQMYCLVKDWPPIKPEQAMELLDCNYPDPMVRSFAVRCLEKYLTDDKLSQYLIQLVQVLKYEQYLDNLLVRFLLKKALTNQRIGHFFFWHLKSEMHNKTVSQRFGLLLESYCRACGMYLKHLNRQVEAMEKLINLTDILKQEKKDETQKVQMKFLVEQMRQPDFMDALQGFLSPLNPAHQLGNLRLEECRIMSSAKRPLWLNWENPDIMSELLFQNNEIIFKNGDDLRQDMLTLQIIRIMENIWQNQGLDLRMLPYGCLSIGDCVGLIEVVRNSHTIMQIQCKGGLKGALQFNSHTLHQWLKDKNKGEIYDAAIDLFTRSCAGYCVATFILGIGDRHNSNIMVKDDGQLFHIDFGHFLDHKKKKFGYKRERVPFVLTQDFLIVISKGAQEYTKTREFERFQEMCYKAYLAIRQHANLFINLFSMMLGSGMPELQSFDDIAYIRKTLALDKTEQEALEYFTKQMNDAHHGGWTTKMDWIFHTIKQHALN
Sequence of PI3K p110α (Mus musculus, UniProt P42337) (P26450 whole entry partner): as the sequence (P26450 whole entry partner) above

EC50 (PI3K p110α [1]): > 20000 nM
EC50 (PI3K p110β [2]): 1900 nM
EC50 (Solid tumor): 11400 nM
EC50 [3]: 367 nM
SMILES: CC[C@H](Nc1ncnc2[nH]cnc12)c1nc2cccc(F)c2c(=O)n1-c1ccccc1 [Compound C]
EC50 (B Cell Malignancies): 662 nM
EC50 (T Cell Malignancies): > 25000 nM

SMILES: C[C@H](Nc1ncnc2[nH]cnc12)c1nc2ccc(F)cc2c(=O)n1-c1ccccc1 [Compound D]
IC50 (PI3K p110β [4]): 153 nM
IC50 (PI3K p110γ [5]): 25 nM
IC50 (PI3K p110δ [6]): 0.9 nM
EC50 (PI3K p110α [1]): > 20000 nM
EC50 (PI3K p110β [2]): 1200 nM
EC50 (PI3K p110δ [7]): 4.9 nM
IC50 (PI3Kβ (p110 β)): 3400 nM
IC50 (PI3Kδ (p110δ)): 9.3 nM
IC50 (PI3Kγ (p110γ)): 1000 nM
EC50 (Solid tumor): 4750 nM
EC50 (pAkt in solid tumor): 987 nM
EC50 (B Cell Malignancies): 540 nM
EC50 [3]: 350 nM
EC50 (T Cell Malignancies): 7700 nM
EC50 [8]: 988 nM
IC50 (PI3K p110α [9]): 303 nM
IC50 (PI3Kα (p110α)): 7800 nM
EC50 (PI3K p110γ [10]): 2350 nM
